The values that follow come from patent publication US12357552B2, “Hydroxyquinoline compounds and methods of use as pigment modifying agents” (priority 2021, dated 2025).

Where two headings read alike, the source gives them in different places.

Data set [1] addresses mushroom tyrosinase (Agaricus bisporus, UniProt C7FF04). As to the kind of experiment: fluorescence-based tyrosinase assay with substrate PAP-AMC (monophenolase activity).
Description: Enzyme activity was measured using the fluorescent substrate PAP-AMC. […] Fluorescence spectroscopy was carried out on a Carey Eclipse spectrophotometer. Fluorescence intensity was measured at 6-second intervals in quartz cuvettes kept at 37° C. […] In vitro fluorescence assays using mushroom tyrosinase (Worthington Biochemicals) were performed in 50 mM sodium phosphate buffer, pH 7.4 with the fluorescent tyrosinase substrate, PAP-AMC (Biovision). Varying concentrations of inhibitors were used as indicated. Data represent the mean±SD of three independent experiments.
After 5 minute incubation, inhibitor was added as a solution in DMSO. After an additional 2 minute incubation, a DMSO solution of PAP-AMC (0.02 mL of 1 mM solution) was added and, after thoroughly mixing, the reaction was monitored by fluorescence (λ excitation=350 nm; λ emission=440 nm). Initial rates were calculated using the slope of the curve for the first ca. 10% of the reaction. The first 1 min of the reaction were not used owing to the usual induction period observed with tyrosinase. Inhibition assays were performed in triplicate trials. Non-linear regression and curve fitting were done using Prism software (Graphpad Inc). […] The experiment was performed in triplicate at pH 7.4 and data were plotted according to Lineweaver-Burk. Data represent the mean±SD of three independent experiments.
Data set [2] deals with MNT-1 cells. The data set can be described thus: viability assay in MNT-1 cell line. The class given is cell-based, human. From the text: Where Acmpd is the absorbance value for the test compound, and Ap and An are the absorbance values of the positive and negative controls, respectively. FIG. 6 depicts the reduction in melanin biosynthesis in MNT-1 cells by chloroxine, relative to the positive control phenylthiourea (PTU), a tyrosinase inhibitor commonly used as a melanin synthesis blocker. Other hydroxyquinoline drugs caused different effects in the MNT-1 cell line. At higher concentrations, the iodo-substituted compounds clioquinol (3) and iodoquinol (4) were toxic, with decreased cell counts in the viability assay.

The test system of data set [3] is mushroom tyrosinase. The data set can be described thus: assessment of reversibility: residual tyrosinase activity after ultrafiltration, with or without exogenous copper sulfate. The conditions noted are these: 5 μM inhibitor. The class given is biochemical. The protocol:
To gain further insight into the mode of action of the hydroxyquinoline drugs, residual enzyme activity was assessed after separation of the drug from the enzyme. This is generally done to assess whether the inhibitor acts in a reversible or irreversible manner. After incubation and measurement of tyrosinase activity, the drug nitroxoline (1) was separated from the reaction mixture in a Centricon centrifugal filter device, and enzymatic activity remeasured with fresh PAPAMC substrate.
When residual activity was measured after ultracentrifugation, less than 10% of the original activity remained (FIG. 4(b)). […]
To assess reversibility of enzyme inhibition, a reaction mixture containing 5 μM inhibitor was placed into Amicon Ultra centrifugal filters (10 K MWCO), concentrated at 4000 rpm for 10 minutes, followed by dilution with sodium phosphate buffer for a total of three cycles. If reconstitution of enzyme activity was being evaluated, exogenous copper sulfate was added to the remaining solution to a final concentration of 0.1 mM. Then fresh L-DOPA and PAP-AMC substrate was added and fluorescence change measured as previously described. […]

A short description of data set [4]: solubility in aqueous solution under the tyrosinase assay conditions. The following applies: higher concentrations.
In data set [5] the test system is MNT-1 cells. The data set can be described thus: inhibition of melanin production in human melanoma MNT-1 cells. The class given is cell-based. The conditions noted are these: 3 days. On the procedure:
To assess melanogenesis inhibition within cells, the human melanoma MNT-1 cell line (CRL-3450 from ATCC), cultured and divided according to the recommended protocol, was subjected to varying concentrations of chloroxine (2) and the other hydroxyquinoline drugs. The MNT-1 cell line was chosen because it was previously used successfully for quantifying melanin synthesis (Hah et al., 2012). Frozen stocks (3.8×10^6 cells) of cells were thawed in a 37° C. water bath, then plated into three 10-cm plates containing 10 mL of MDEM+10% fetal bovine serum and 100 μL of 100× Penicillin/Streptomycin. When the cells became confluent, medium was aspirated, cells were rinsed with sterile phosphate-buffered saline (PBS), and then treated with 1 mL of 0.25% trypsin with 0.02% EDTA at 37° C. for 3 min. When the cells became loose, 4 mL of medium was added to neutralize the trypsin. FIG. 5 depicts the inhibition of melanin production in MNT-1 cells by chloroxine, an inhibitor of tyrosinase, at concentrations indicated. Cells were incubated with chloroxine for 3 days and then harvested, with melanin quantified after cell lysis, measuring absorbance at 405 nm. […]
Where Acmpd is the absorbance value for the test compound, and Ap and An are the absorbance values of the positive and negative controls, respectively. […]

Data set [6] relates to tyrosinase. The following applies: cited from earlier work.

mushroom tyrosinase (Agaricus bisporus, UniProt C7FF04), sequence (C7FF04 1-392): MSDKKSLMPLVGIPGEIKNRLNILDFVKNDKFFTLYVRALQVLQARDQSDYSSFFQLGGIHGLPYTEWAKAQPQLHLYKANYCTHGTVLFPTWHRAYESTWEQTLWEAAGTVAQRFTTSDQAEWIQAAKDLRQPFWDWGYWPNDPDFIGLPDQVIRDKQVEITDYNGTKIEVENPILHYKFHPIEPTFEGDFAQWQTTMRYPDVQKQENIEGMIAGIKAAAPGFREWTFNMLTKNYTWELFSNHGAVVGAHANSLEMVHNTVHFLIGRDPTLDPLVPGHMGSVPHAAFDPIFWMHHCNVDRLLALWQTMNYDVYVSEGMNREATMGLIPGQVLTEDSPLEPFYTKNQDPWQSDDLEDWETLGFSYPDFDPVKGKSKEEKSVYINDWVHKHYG

Turning to `Oc1c(I)cc(Cl)c2cccnc12` [clioquinol], the affinity in data set [1], expressed as Ki, was 367 µM. Moreover, the “toxicity (cell counts in the viability assay)” value (“toxicity” for short) in data set [2] was “toxic”.

`O=[N+]([O-])c1ccc(O)c2ncccc12` [nitroxoline] displayed a Ki in data set [1] of 0.9 µM. Further, the “type of enzyme inhibition (Lineweaver-Burk)” value in data set [1] (varying substrate and inhibitor concentrations, pH 7.4) is recorded as “competitive inhibitor”. For the same compound, the “enzyme activity after incubation of the concentrate with exogenous copper sulfate” value in data set [3] (after ultrafiltration, 0.1 mM copper sulfate) is “substantial recovery of original enzyme activity”. For the same compound, the “residual activity after ultracentrifugation, of the original activity” value in data set [3] (no exogenous copper sulfate) was “less than 10%”. In addition, the “toxicity” value in data set [2] is on record as “not toxic”.

Turning to `Oc1c(Cl)cc(Cl)c2cccnc12` [chloroxine], the Ki in data set [1] is around 12 µM. The “solubility in aqueous solution” value in data set [4] is “did not show evidence of insolubility”. The “toxicity” value in data set [2] is on record as “not toxic”. Further, in data set [5], the “ability to block melanin production” value is on record as “dose-dependent”. Moreover, the IC50 in data set [5] (Homo sapiens, 72 h, absorbance at 405 nm, read-out: IC50 value for blocking melanin synthesis) is around 1500 nM.

`O=c1cc(CO)occ1O` [kojic acid]: the inhibition of tyrosinase entry in data set [6] was “high micromolar”.

On to iodoquinol, for which the “inhibitory constant (in words)” value in data set [1] (monophenolase activity of tyrosinase) is recorded as “high micromolar”. Besides, the Ki in data set [1] (mushroom tyrosinase, PAP-AMC substrate, pH 7.4) was 1290 µM. Moreover, in data set [4], the “solubility in aqueous solution” value is on record as “less soluble in aqueous solution”. Moreover, the “toxicity” value in data set [2] (MNT-1 cells, higher concentrations) is “toxic”.
